Reference: article doi:10.1101/2024.08.19.608619, “Discovery of potent SARS-CoV-2 nsp3 macrodomain inhibitors uncovers lack of translation to cellular antiviral response” (bioRxiv, 2024)

Target: T1, SARS-CoV-2 nsp3-mac1 (Severe acute respiratory syndrome coronavirus 2, UniProt P0DTD1)
Test: biochemical
Design: SARS-CoV-2 nsp3 macrodomain TR-FRET single point, per cent inhibition, n=2
Details: read-out: perc_inhibition_mean, batch_name=ASAP-0000470-001

How did the inhibition at 49.75 µM turn out when C[C@@H](Nc1ncnc2[nH]ccc12)c1cnn(Cc2ccccc2)c1 [ASAP-0000470] was run?
Its inhibition at 49.75 µM is -4.11%.

What about the inhibition at 99.5 µM of the same molecule?
Its inhibition at 99.5 µM is 3.18%.

Same assay, conditions: read-out: perc_inhibition_mean, batch_name=ASAP-0000471-001

For CC(C)[C@@H](Nc1ncnc2[nH]ccc12)c1nc2ccccc2[nH]1 [ASAP-0000471], which inhibition at 49.75 µM is on record?
The inhibition at 49.75 µM was 37.3%.

And the inhibition at 99.5 µM?
Its inhibition at 99.5 µM is 52.5%.

Same assay, conditions: read-out: perc_inhibition_mean, batch_name=ASAP-0000472-001

How did the inhibition at 49.75 µM turn out when c1nc(N[C@@H]2CCCc3c2cnn3C2CCCC2)c2cc[nH]c2n1 [ASAP-0000472] was run?
The inhibition at 49.75 µM was 0.884%.

And the inhibition at 99.5 µM?
Its inhibition at 99.5 µM is 14.3%.

Same assay, conditions: read-out: perc_inhibition_mean, batch_name=ASAP-0000473-001

Which inhibition at 49.75 µM does the source give for C[C@@H](Nc1ncnc2[nH]ccc12)c1cnn(CC2CCC2)c1 [ASAP-0000473] here?
Its inhibition at 49.75 µM is -0.451%.

And the inhibition at 99.5 µM?
The inhibition at 99.5 µM was 4.9%.

Same assay, conditions: read-out: perc_inhibition_mean, batch_name=ASAP-0000474-001

Which results are given for Cn1cc([C@H]2CCCCN2c2ncnc3[nH]ccc23)cn1 [ASAP-0000474]?
inhibition at 49.75 µM: 6.39%; inhibition at 99.5 µM: 8.32%

Same assay, conditions: read-out: perc_inhibition_mean, batch_name=ASAP-0000475-001

CC(C)[C@@H](CCN(C)C(=O)c1cc2c(s1)CC[C@H](C)C2)Nc1ncnc2[nH]ccc12 [ASAP-0000475] was tested. Which inhibition at 49.75 µM did it give?
The inhibition at 49.75 µM was -9.68%.

What about the inhibition at 99.5 µM of the same molecule?
The inhibition at 99.5 µM was -29.7%.

Same assay, conditions: read-out: perc_inhibition_mean, batch_name=ASAP-0000476-001

How did the inhibition at 49.75 µM turn out when Cc1c([C@@H](C)Nc2ncnc3[nH]ccc23)cnn1-c1ccccc1 [ASAP-0000476] was run?
The inhibition at 49.75 µM was 28.1%.

What about the inhibition at 99.5 µM of the same molecule?
Its inhibition at 99.5 µM is 41.7%.

Same assay, conditions: read-out: perc_inhibition_mean, batch_name=ASAP-0000477-001

Which inhibition at 49.75 µM does the source give for CC(C)[C@H]1N(c2ncnc3[nH]ccc23)CC12CCOCC2 [ASAP-0000477] here?
Its inhibition at 49.75 µM is 27.6%.

And the inhibition at 99.5 µM?
Its inhibition at 99.5 µM is 48%.

Same assay, conditions: read-out: perc_inhibition_mean, batch_name=ASAP-0000478-001

What does the source list for CC(C)Cn1cc([C@H]2N(c3ncnc4[nH]ccc34)CC23CCOCC3)cn1 [ASAP-0000478]?
inhibition at 49.75 µM: -0.591%; inhibition at 99.5 µM: -4.66%

Same assay, conditions: read-out: perc_inhibition_mean, batch_name=ASAP-0000479-001

Which results are given for CC(C)[C@@H]1C(=O)NCCN1c1ncnc2[nH]ccc12 [ASAP-0000479]?
inhibition at 49.75 µM: 61.4%; inhibition at 99.5 µM: 80.7%

Same assay, conditions: read-out: perc_inhibition_mean, batch_name=ASAP-0000480-001

Which inhibition at 49.75 µM does the source give for CC(C)[C@@H](CO)[C@@H](Nc1ncnc2[nH]ccc12)C(C)C [ASAP-0000480] here?
The inhibition at 49.75 µM was 6.65%.

And the inhibition at 99.5 µM?
Its inhibition at 99.5 µM is 13.1%.

Same assay, conditions: read-out: perc_inhibition_mean, batch_name=ASAP-0000481-001

What does the source list for CC(C)[C@@H](CCN(C)C(=O)C1CCc2ccccc2CC1)Nc1ncnc2[nH]ccc12 [ASAP-0000481]?
inhibition at 49.75 µM: -5.62%; inhibition at 99.5 µM: -10.9%

Target: T1, SARS-CoV-2 nsp3-mac1
Test: biochemical
Type: biochemical
Details: SARS-CoV-2 nsp3 macrodomain TR-FRET single point; concentration 49.75 uM

How did the perc_inhibition_mean turn out when C[C@@H](Nc1ncnc2[nH]ccc12)c1cnn(Cc2ccccc2)c1 [ASAP-0000470] was run?
The perc_inhibition_mean was -4.105%.

How did the perc_inhibition_mean turn out when CC(C)[C@@H](Nc1ncnc2[nH]ccc12)c1nc2ccccc2[nH]1 [ASAP-0000471] was run?
Its perc_inhibition_mean is 37.305%.

Which perc_inhibition_mean does the source give for c1nc(N[C@@H]2CCCc3c2cnn3C2CCCC2)c2cc[nH]c2n1 [ASAP-0000472] here?
The perc_inhibition_mean was 0.884%.

How did the perc_inhibition_mean turn out when C[C@@H](Nc1ncnc2[nH]ccc12)c1cnn(CC2CCC2)c1 [ASAP-0000473] was run?
The perc_inhibition_mean was -0.451%.

Which perc_inhibition_mean does the source give for Cn1cc([C@H]2CCCCN2c2ncnc3[nH]ccc23)cn1 [ASAP-0000474] here?
Its perc_inhibition_mean is 6.392%.

How did the perc_inhibition_mean turn out when CC(C)[C@@H](CCN(C)C(=O)c1cc2c(s1)CC[C@H](C)C2)Nc1ncnc2[nH]ccc12 [ASAP-0000475] was run?
Its perc_inhibition_mean is -9.684%.

With Cc1c([C@@H](C)Nc2ncnc3[nH]ccc23)cnn1-c1ccccc1 [ASAP-0000476] as the molecule, how does the perc_inhibition_mean read?
The perc_inhibition_mean was 28.129%.

With CC(C)[C@H]1N(c2ncnc3[nH]ccc23)CC12CCOCC2 [ASAP-0000477] as the molecule, how does the perc_inhibition_mean read?
Its perc_inhibition_mean is 27.65%.

With CC(C)Cn1cc([C@H]2N(c3ncnc4[nH]ccc34)CC23CCOCC3)cn1 [ASAP-0000478] as the molecule, how does the perc_inhibition_mean read?
Its perc_inhibition_mean is -0.591%.

Which perc_inhibition_mean does the source give for CC(C)[C@@H]1C(=O)NCCN1c1ncnc2[nH]ccc12 [ASAP-0000479] here?
Its perc_inhibition_mean is 61.35%.

For CC(C)[C@@H](CO)[C@@H](Nc1ncnc2[nH]ccc12)C(C)C [ASAP-0000480], which perc_inhibition_mean is on record?
The perc_inhibition_mean was 6.651%.

With CC(C)[C@@H](CCN(C)C(=O)C1CCc2ccccc2CC1)Nc1ncnc2[nH]ccc12 [ASAP-0000481] as the molecule, how does the perc_inhibition_mean read?
Its perc_inhibition_mean is -5.62%.

Same assay, conditions: SARS-CoV-2 nsp3 macrodomain TR-FRET single point; concentration 99.5 uM

Which perc_inhibition_mean does the source give for C[C@@H](Nc1ncnc2[nH]ccc12)c1cnn(Cc2ccccc2)c1 [ASAP-0000470] here?
The perc_inhibition_mean was 3.18%.

How did the perc_inhibition_mean turn out when CC(C)[C@@H](Nc1ncnc2[nH]ccc12)c1nc2ccccc2[nH]1 [ASAP-0000471] was run?
The perc_inhibition_mean was 52.508%.

How did the perc_inhibition_mean turn out when c1nc(N[C@@H]2CCCc3c2cnn3C2CCCC2)c2cc[nH]c2n1 [ASAP-0000472] was run?
Its perc_inhibition_mean is 14.273%.

For C[C@@H](Nc1ncnc2[nH]ccc12)c1cnn(CC2CCC2)c1 [ASAP-0000473], which perc_inhibition_mean is on record?
Its perc_inhibition_mean is 4.9%.

Which perc_inhibition_mean does the source give for Cn1cc([C@H]2CCCCN2c2ncnc3[nH]ccc23)cn1 [ASAP-0000474] here?
Its perc_inhibition_mean is 8.316%.

With CC(C)[C@@H](CCN(C)C(=O)c1cc2c(s1)CC[C@H](C)C2)Nc1ncnc2[nH]ccc12 [ASAP-0000475] as the molecule, how does the perc_inhibition_mean read?
Its perc_inhibition_mean is -29.716%.

Which perc_inhibition_mean does the source give for Cc1c([C@@H](C)Nc2ncnc3[nH]ccc23)cnn1-c1ccccc1 [ASAP-0000476] here?
Its perc_inhibition_mean is 41.664%.

CC(C)[C@H]1N(c2ncnc3[nH]ccc23)CC12CCOCC2 [ASAP-0000477] was tested. Which perc_inhibition_mean did it give?
The perc_inhibition_mean was 47.993%.

How did the perc_inhibition_mean turn out when CC(C)Cn1cc([C@H]2N(c3ncnc4[nH]ccc34)CC23CCOCC3)cn1 [ASAP-0000478] was run?
Its perc_inhibition_mean is -4.664%.

With CC(C)[C@@H]1C(=O)NCCN1c1ncnc2[nH]ccc12 [ASAP-0000479] as the molecule, how does the perc_inhibition_mean read?
Its perc_inhibition_mean is 80.665%.

For CC(C)[C@@H](CO)[C@@H](Nc1ncnc2[nH]ccc12)C(C)C [ASAP-0000480], which perc_inhibition_mean is on record?
Its perc_inhibition_mean is 13.057%.

For CC(C)[C@@H](CCN(C)C(=O)C1CCc2ccccc2CC1)Nc1ncnc2[nH]ccc12 [ASAP-0000481], which perc_inhibition_mean is on record?
Its perc_inhibition_mean is -10.916%.
